Drawing on publication PMC2731242, “Oleic Acid Biosynthesis in Plasmodium falciparum: Characterization of the Stearoyl-CoA Desaturase and Investigation as a Potential Therapeutic Target” (PLoS ONE, 2009), this text covers IC50 for one compound.

For this experiment, the target named is T1, stearoyl-CoA Δ9-desaturase (PfSCD, PFE0555w) (Plasmodium falciparum, UniProt Q8I0W9).
T1 construct: gene PF3D7_0511200; native enzyme in crude schizont lysate (500 µg total protein)
The experiment can be described thus: cell-free desaturase assay in schizont lysates, […]-stearoyl-CoA to oleic acid, silver nitrate TLC. Format: biochemical.

pIC50: −log10 of the molar value.

T1 sequence (Q8I0W9 entry or part of it, stated change not applied): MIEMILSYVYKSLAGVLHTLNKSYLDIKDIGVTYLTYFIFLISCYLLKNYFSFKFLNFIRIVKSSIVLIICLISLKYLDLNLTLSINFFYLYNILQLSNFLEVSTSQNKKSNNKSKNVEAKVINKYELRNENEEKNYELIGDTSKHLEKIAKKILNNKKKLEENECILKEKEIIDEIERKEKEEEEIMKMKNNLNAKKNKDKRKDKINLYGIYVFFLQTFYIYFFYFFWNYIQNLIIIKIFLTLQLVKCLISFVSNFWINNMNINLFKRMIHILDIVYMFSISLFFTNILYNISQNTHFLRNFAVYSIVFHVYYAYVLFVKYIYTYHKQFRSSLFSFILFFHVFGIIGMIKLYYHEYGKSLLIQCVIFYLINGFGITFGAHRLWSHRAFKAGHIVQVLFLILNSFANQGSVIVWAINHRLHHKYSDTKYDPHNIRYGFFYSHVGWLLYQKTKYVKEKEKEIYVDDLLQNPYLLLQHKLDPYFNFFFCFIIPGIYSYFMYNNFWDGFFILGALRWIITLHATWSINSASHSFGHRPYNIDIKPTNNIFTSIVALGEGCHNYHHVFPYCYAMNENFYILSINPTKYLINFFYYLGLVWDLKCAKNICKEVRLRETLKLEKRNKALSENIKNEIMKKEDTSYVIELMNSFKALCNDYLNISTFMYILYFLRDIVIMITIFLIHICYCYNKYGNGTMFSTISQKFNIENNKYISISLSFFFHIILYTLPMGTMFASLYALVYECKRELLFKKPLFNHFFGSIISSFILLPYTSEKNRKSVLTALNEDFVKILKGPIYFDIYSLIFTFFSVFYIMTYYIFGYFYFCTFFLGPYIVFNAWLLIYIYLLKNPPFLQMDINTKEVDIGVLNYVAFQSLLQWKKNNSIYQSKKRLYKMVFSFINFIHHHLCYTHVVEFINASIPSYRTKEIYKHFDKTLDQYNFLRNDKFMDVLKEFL

Regarding `CCCCCCCCC1=C(CCCCCCCC(=O)OC)C1` [MeSter, methyl sterculate], the pIC50 (commonly the negative decadic logarithm of the IC50, by convention in mol/L) was 3.98.
